These are literature values, as cited in patent publication US5840770A, “Method of killing tumor cells” (Hill Medical Corporation, priority 1997, dated 1998).

One data set has as its system cholinergic receptors. As to conditions: in vivo.
Experiment in data set [1]: not given
This is another data set of the same source.

For data set [2] the following is noted: normally.
In data set [3] the test system is mouse and rat transplanted tumors. The settings on record: in vivo.
The test system of data set [4] is low-grade non-Hodgkin's lymphoma, cutaneous T cell lymphoma, chronic myelogenous leukemia, Kaposi's sarcoma and especially hairy cell leukemia.
A further data set relates to serum potassium. As to conditions: in vivo.

`CC[C@@H]1C(=O)OC[C@@H]1Cc1cncn1C` [Pilocarpine, pilocarpine]: in the data set on cholinergic receptors, the duration was 4 to 8 h and the onset is 15 to 30 min.
In the case of `O=C[C@H](O)[C@@H](O)[C@H](O)[C@H](O)CO` [dextrose], the osmolarity (5% dextrose) is 253 mOsm/L. The tonicity result (5% dextrose solution) is recorded as “isotonic”. The infused glucose retained in data set [1] (0.8 gm/kg/hour) is given as 95%. For the same compound, the “maximum infusion rate without producing glycosuria” value in data set [1] (in vivo) was 0.5 gm/kg/hour.
With `[K+]` [potassium], in data set [2], the “potassium intake excreted in the urine” value was 80-90%.
As for Glucagon: glucagon alone, the “effect on transplanted tumors” value in data set [3] is listed as “arrested these cancers”.
Interferon-alpha: in data set [4] (listed lymphomas, leukemias, Kaposi's sarcoma), the efficacy result is on record as “effective”. Further, in data set [4] (tumors other than those listed), the “effect on other tumors” value was “no effect”.
Consider insulin, for which the serum potassium concentration entry with serum potassium is on record as “lowers serum potassium concentration”. Besides, the “effect on transplanted tumors” value in data set [3] is reported as “no therapeutic effect”.
